Assay results from patent US12144814B2, “Compositions containing paraxanthine and beta-hydroxybutyrate or precursor for increasing neurological and physiological performance” (priority 2023, dated 2024).

Legend:
mice = test: Forced Swim Test on mice; assay type: in vivo; conditions: PX 100 mg
[1] = elevated doses; cited from earlier work
[2] = Clinical Resting Energy Expenditure study; assay type: in vivo; conditions: paraxanthine 100 mg or 300 mg; BHB 5 g; paraxanthine 100 mg or 300 mg with BHB 5 g; 180-day period
Procedure: FIGS. 16A-16B show expected results of a clinical Resting Energy Expenditure study, where participants are supplemented with paraxanthine alone (100 mg or 300 mg), BHB alone (5 g), or paraxanthine (100 mg or 300 mg) in combination with BHB (5 g) over a 180-day period. […] Because of the presence of the BHB ketone body component, such increased metabolic rate is also more likely to occur within the context of ketogenic state, where fat is principally used as the caloric energy source for the increased resting metabolic rate.

[3] = Age-related cognitive decline study; assay type: in vivo
[4] = in vivo; cited from earlier work
healthy young adults [5] = test: Vigilance Task Test; assay type: in vivo; conditions: 200 mg paraxanthine; 5 g BHB; 200 mg paraxanthine and 5 g BHB; baseline and 1-6 hours after supplementation; FIG. 6
Excerpt: The Vigilance Task Test is another test routinely used in the field, and is used to evaluate a participants ability to sustain attention. The Vigilance Task Test is a sustained attention, reaction timed task test that measures the speed with which participants respond to a visual stimulus. The subjects respond to visual stimuli (e.g., a red dot) by pressing a key as soon as it appears on the computer screen. The light turns on at random, e.g., roughly every couple of seconds or so during the test. The speed of response is measured. Due to the random nature of the test, there is no learning effect. Mean response time is recorded. When running each such tests, subjects are given either paraxanthine+BHB, paraxanthine alone, BHB alone, or a placebo. The dosage amounts are 200 mg paraxanthine and 5 g of BHB, 200 mg of paraxanthine alone, 5 g of BHB alone, or a placebo. The testing is conducted under double blind, placebo controlled conditions. The subjects include 13 healthy young adults (10 male, 3 female), aged 24±5 years; height 170.0±11.8 cm; weight 72.9±19.3 kg.

[6] = cited from earlier work
healthy young adults [7] = test: Sternberg Test; assay type: in vivo; conditions: 200 mg paraxanthine; 5 g BHB; 200 mg paraxanthine and 5 g BHB; letter length 2, 4, 6; FIGS. 9-11
Excerpt: The Sternberg Test is a test routinely used in the field to evaluate working memory, and ability to make use of short-term memory. A lower reaction time means that participants can access their working memory faster. The Sternberg Task Test is a widely used paradigm for studying short term/working memory involving cognitive control processes. Participants are asked to remember a short series of letters or other characters and then the participants has to respond if the series of letters or characters is present in a larger series of letters or characters. Reaction time is measured when the remembered short series is both present or absent. Mean response time is recorded. When running each such tests, subjects are given either paraxanthine+BHB, paraxanthine alone, BHB alone, or a placebo. The dosage amounts are 200 mg paraxanthine and 5 g of BHB, 200 mg of paraxanthine alone, 5 g of BHB alone, or a placebo. The testing is conducted under double blind, placebo controlled conditions. The subjects include 13 healthy young adults (10 male, 3 female), aged 24±5 years; height 170.0±11.8 cm; weight 72.9±19.3 kg.

[8] = Clinical Stroop Test study; assay type: in vivo; conditions: paraxanthine 200 mg; BHB 5 g; paraxanthine 200 mg with BHB 5 g; 6-week period; FIGS. 15A-15C
Excerpt: The Stroop effect refers to the delay in reaction time between congruent and incongruent stimuli. […] When paired with paraxanthine, the combination provides a synergistic improvement in mental acuity.

healthy young adults [9] = test: Go/No Go Attention and Inhibitory Control Test; assay type: in vivo; conditions: 200 mg paraxanthine; 5 g BHB; 200 mg paraxanthine and 5 g BHB; baseline and 1-6 hours after supplementation; FIG. 5
Excerpt: Attention and inhibitory control can be measured using a Go/No Go Test, which is used to measure a participant's capacity for sustained attention and response control. The Go/No Go Test is routinely used in the field, and will be familiar to those of skill in the art. In the Go/No Go Test, participants watch a 2×2 array of squares, and then there is a successive presentation of letters (e.g., either P or R) and the participant responds to a target letter by pressing the corresponding button on a keyboard. The single letter (P or R) is presented in one of the 4 squares for 500 milliseconds, with 1500 milliseconds between subsequent stimuli. For the P-Go condition, participants are asked to press the P key in response to the letter P, and abstain from responding to the letter R. For the R-reversal condition, the participants are asked to respond to the letter R, and abstain when seeing the letter P. Mean response time, as well as percentage of correct answers are recorded. When running each such tests, subjects are given either paraxanthine+BHB, paraxanthine alone, BHB alone, or a placebo. The dosage amounts are 200 mg paraxanthine and 5 g of BHB, 200 mg of paraxanthine alone, 5 g of BHB alone, or a placebo. The testing is conducted under double blind, placebo controlled conditions. […]

[10] = metabolite of caffeine, cited from earlier work
adenosine A2a receptors = adenosine A2a receptors (Homo sapiens, UniProt P29274); conditions: compared with caffeine; cited from earlier work
Sequence of adenosine A2a receptors (P29274 whole entry): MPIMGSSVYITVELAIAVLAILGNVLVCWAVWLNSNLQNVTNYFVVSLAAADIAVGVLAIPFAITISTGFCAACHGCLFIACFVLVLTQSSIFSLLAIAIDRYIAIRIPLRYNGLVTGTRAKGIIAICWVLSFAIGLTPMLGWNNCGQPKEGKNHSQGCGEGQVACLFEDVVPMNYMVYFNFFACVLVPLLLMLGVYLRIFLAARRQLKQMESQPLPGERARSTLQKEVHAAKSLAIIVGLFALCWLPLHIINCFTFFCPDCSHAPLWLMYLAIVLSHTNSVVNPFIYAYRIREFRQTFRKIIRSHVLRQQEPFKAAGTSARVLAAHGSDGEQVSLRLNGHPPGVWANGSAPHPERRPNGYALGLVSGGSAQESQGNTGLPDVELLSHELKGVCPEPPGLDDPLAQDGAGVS

## Cn1c(=O)[nH]c2ncn(C)c2c1=O [paraxanthine, 1,7-dimethylxanthine]
mice
  Duration of Immobility: 5.85 min
  Duration of mobility/active swimming: 24.15 min
[1]
  hypothermia and reduced locomotor activity: no such problems are observed
[2]
  resting energy expenditure: some increase in resting energy expenditure
[3]; PX 25 mg
  Acetylcholine: 61.04 U/mL
  BDNF: 828.05 pg/mL
  Catalase: 30.24 U/mL
  Dopamine: 493.65 ng/L
  Escape Latency: 49.9 s
  Glutathione: 24.04 µg/mL
[3]; PX 100 mg
  Acetylcholine: 69.27 U/mL
  BDNF: 939.15 pg/mL
  Catalase: 38.91 U/mL
  Dopamine: 596.32 ng/L
  Escape Latency: 21.31 s
  Glutathione: 34.41 µg/mL
[4]
  wake promoting activity: stronger wake promoting activity as compared to caffeine
Healthy young adults [5]
  Vigilance Task Test average response time: faster response times
[6]; elimination half-life, FIG. 3
  half-life: 3.1 h
[6]; in vivo
  Total plasma clearance: 2.20 mL/min/kg
Healthy young adults [7]
  Sternberg Test mean response time: decreased mean response time
[8]
  Stroop test number of correct answers: some improvement
  Stroop test reaction speed: some improvement
Healthy young adults [9]
  Go/No Go Test average response time: faster response times
[10]; FIG. 2
  share of the methylxanthine metabolic by-products: about 84%
[10]
  share of caffeine ingested: 70-72%
Adenosine A2a receptors
  binding potency for adenosine A2a receptors: higher binding potencies
